Assay results taken from US20200131156A1, “ARYLSULFONYLPYROLECARBOXAMIDE DERIVATIVES AS Kv3 POTASSIUM CHANNEL ACTIVATORS” (H. Lundbeck A/S, priority 2018, published 2020).

Tests used:
human Kv3.4 = target: T1, human Kv3.4 (Homo sapiens, UniProt Q03721); assay: Manual patch clamp electrophysiology, HEK-293 cells stably expressing human Kv3.4; assay type: cell-based; conditions: for hKv3.4 ECΔ30% increase: concentration increasing current by 30% at the −10 mV step; for hKv3.4 ECΔ5 mV: concentration that shifts activation threshold by 5 mV
T1 construct: expressed in transfected cells
T1 sequence (Q03721 1-635): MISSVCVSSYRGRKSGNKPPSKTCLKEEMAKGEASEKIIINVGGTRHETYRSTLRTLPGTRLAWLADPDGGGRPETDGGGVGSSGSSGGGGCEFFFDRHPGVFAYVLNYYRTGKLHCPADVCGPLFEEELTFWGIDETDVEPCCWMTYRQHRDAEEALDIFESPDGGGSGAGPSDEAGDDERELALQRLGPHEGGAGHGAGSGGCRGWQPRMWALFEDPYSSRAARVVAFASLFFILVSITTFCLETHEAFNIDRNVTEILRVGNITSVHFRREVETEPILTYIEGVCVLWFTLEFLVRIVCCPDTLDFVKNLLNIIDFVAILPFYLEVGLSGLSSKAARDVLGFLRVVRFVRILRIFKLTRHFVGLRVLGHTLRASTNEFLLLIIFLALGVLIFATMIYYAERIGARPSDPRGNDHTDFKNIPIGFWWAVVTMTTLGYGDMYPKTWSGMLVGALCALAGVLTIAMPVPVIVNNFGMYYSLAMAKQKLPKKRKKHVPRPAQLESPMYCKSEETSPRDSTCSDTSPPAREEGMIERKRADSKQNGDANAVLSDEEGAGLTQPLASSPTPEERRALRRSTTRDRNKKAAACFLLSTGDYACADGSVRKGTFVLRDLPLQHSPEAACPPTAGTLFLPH
Experimental: Manual Patch Clamp Electrophysiological Evaluation, hKv3.1, hKv3.2, hKv3.3, hKv3.4:
HEK-293 cells stably expressing human Kv3.1b, Kv3.2, Kv3.3 or Kv3.4 were used for the experiments.
Kv3.1b, Kv3.2: Cells were cultured in MEM medium supplemented with 10% Fetal Bovine Serum, 1% Penicillin/Streptomycin, 2 mM glutamine and 0.6 mg/mL geneticin. Cells were grown to 80-90% confluency at 37° C. and 5% CO2 Kv3.3 or Kv3.4: Cells were cultured in DMEM medium supplemented with 10% Fetal Bovine Serum, 500 ug/mL Geneticidin and 1% Penicillin/Streptomycin. Cells were grown to 80-90% confluency at 37° C. and 5% CO2.
On the day of the experiment the cells were detached by TrypLE and resuspended in culture medium. Cells were centrifuged, media removed and the cells were resuspended in extracellular buffer containing (in mM): 130 Na-gluconate, 20 NaCl, 4 KCl, 1 MgCl2, 1.8 CaCl2, 10 HEPES and 5 glucose, pH 7.3 adjusted with NaOH, 310-320 mOsm
Patch-clamp recordings were performed using a manual patch-clamp system (Axon Multiclamp 700B, Digidata 1440, pCLAMP 10, Molecular Devices Corporation) with a fast perfusion system (RSC-160 Rapid solution Changer, BioLogic). Whole-cell recordings were carried out using an intracellular solution containing (in mM): 100 K-gluconate, 40 KCl, 10 HEPES, 1 EGTA, 1 MgCl2, pH 7.2 adjusted with KOH, 290-300 mOsm. Cell membrane potentials were held at −80 mV and current voltage-relationship was generated by voltage steps (50 ms duration) from −100 mV to +10 mV (in 10 mV increments) and then back to −100 mV for 50 ms, with inter-sweep interval of 3 s. The peak current amplitude of −10 mV was monitored until stable (<5% change) by using one step voltage protocol. One IV protocol was run as baseline, then compound perfusion was stared and peak current stability was monitored with single step protocol prior to the IV protocol. Single concentrations were measured per cell. Acceptable cells had seal resistance >500 MOhm, Access resistance <10 MOhm, and leak current <200 pA.
Data analysis was performed using Clampfit (V10.2) in combination with Microsoft Excel™ (Redmond, Wash., USA). Current voltage relationships were plotted from the peak current (baseline subtracted) at the individual voltage steps normalized to the vehicle addition at 10 mV. The voltage threshold for channel activation was defined as 5% activation of the peak current at 10 mV in presence of vehicle. […] The concentration needed to shift the threshold 5 mV was readout from this curve (ECΔ5 mV), as well as the ability to increase the peak current at the −10 mV step (EC30% increase). […]

[1] = Unbound fraction in brain (mouse PK table footnote); assay type: in vitro ADME

SMILES	hKv3.4 ECΔ30% increase (human Kv3.4) [µM]	hKv3.4 ECΔ5 mV (human Kv3.4) [µM]	fraction unbound [1]
Cc1ccc(S(=O)(=O)n2ccc(C(=O)NCc3ncco3)c2)cc1 [Compound 86, 1-(4-methylbenzene-1-sulfonyl)-N-[(1,3-oxazol-2-yl)methyl]-1H-pyrrole-3-carboxamide]	>30	14.4	0.11
Cc1cnc(CNC(=O)c2ccn(S(=O)(=O)c3ccc(F)cc3C)c2)cn1 [Compound 90, 1-(4-fluoro-2-methylbenzene-1-sulfonyl)-N-[(5-methylpyrazin-2-yl)methyl]-1H-pyrrole-3-carboxamide]	>30	>30	0.1
